From patent US10154990B2, “Medicaments for the treatment or prevention of fibrotic diseases” (Boehringer Ingelheim International GmbH, priority 2004, dated 2018)

melting point | Structure (SMILES)
163 to 165 °C | COC(=O)c1ccc2c(c1)NC(=O)/C2=C(\Nc1ccc(N(C)C(=O)CN(C)C)c(C#N)c1)c1ccccc1 [(v), 3-Z-[1-(3-cyano-4-(N-dimethylaminomethylcarbonyl-N-methyl-amino)-anilino)-1-phenyl-methylene]-6-methoxycarbonyl-2-indolinone]
190 to 195 °C | COC(=O)c1ccc2c(c1)NC(=O)/C2=C(\Nc1ccc(CN(C)C)cc1)c1ccc(CCC(=O)O)cc1 [(az), 3-Z-[1-(4-dimethylaminomethyl-anilino)-1-(4-(2-carboxy-ethyl)-phenyl)-methylene]-6-methoxycarbonyl-2-indolinone]
287 °C | CNCc1ccc(N/C(=C2\C(=O)Nc3cc(C(=O)O)ccc32)c2ccccc2)cc1 [(an), 3-Z-[1-(4-methylaminomethyl-anilino)-1-phenyl-methylene]-6-carboxy-2-indolinone]
280 °C | CN(C)CCN(c1ccc(N/C(=C2\C(=O)Nc3cc(C(=O)O)ccc32)c2ccccc2)cc1)S(C)(=O)=O [(ap), 3-Z-[1-(4-(N-(2-dimethylamino-ethyl)-N-methylsulphonyl-amino)-anilino)-1-phenyl-methylene]-6-carboxy-2-indolinone]
